The test system of series [1] is Caco-2. Description: Anticancer activity against human Caco-2 cells assessed as cell growth inhibition by cytometry. In kind it is functional, cell-based.
Series [2] can be described thus: Anticancer activity against human 1321N1 cells assessed as cell growth inhibition by dynamic assay. The series is classed as functional, cell-based.
The test system of series [3] is Mycobacterium tuberculosis. The series can be described thus: Antibacterial activity against Mycobacterium tuberculosis assessed as bacterial growth inhibition. In kind it is functional.
Series [4] relates to Prototheca zopfii. Description: Antimicrobial activity against Prototheca zopfii assessed as microbial growth inhibition by CLSI protocol based assay. In kind it is functional.
The test system of series [5] is L5178Y. The series can be described thus: Anticancer activity against mouse L5178Y cells assessed as cell growth inhibition incubated for 24 hrs by MTT assay. In kind it is functional, cell-based.
Series [6] has as its system Salmonella typhimurium. The series can be described thus: Antibacterial activity against Salmonella typhimurium Delta-119 assessed as bacterial growth inhibition incubated for 16 hrs by broth dilution method. The following applies: Salmonella enterica. In kind it is functional, Salmonella enterica subsp. enterica serovar Typhimurium.
Series [7] has as its system Klebsiella pneumoniae. Description: Antibacterial activity against Klebsiella pneumoniae Delta-217 assessed as bacterial growth inhibition incubated for 16 hrs by broth dilution method. The series is classed as functional.
For series [8], the system named is Aspergillus niger. The series can be described thus: Antifungal activity against Aspergillus niger assessed as fungal growth inhibition incubated for 48 hrs by agar diffusion method. The series is classed as functional. The following applies: Aspergillus niger.
Series [9] relates to Escherichia coli. Description: Antibacterial activity against Escherichia coli assessed as bacterial growth inhibition. The series is classed as functional.
Series [10] has as its system Mycolicibacterium smegmatis. The series can be described thus: Antibacterial activity against Mycobacterium smegmatis assessed as bacterial growth inhibition. In kind it is functional.
Series [11] concerns Aspergillus niger. Description: Antifungal activity against Aspergillus niger assessed as fungal growth inhibition at 50 ug incubated for 96 hrs by disk diffusion method. In kind it is functional. The following applies: read-out: IZ.
Series [12] has as its system Verticillium dahliae. The series can be described thus: Antifungal activity against Verticillium dahliae assessed as fungal growth inhibition at 50 ug incubated for 96 hrs by disk diffusion method. The series is classed as functional. The following applies: read-out: IZ.
The test system of series [13] is Streptococcus mutans. The series can be described thus: Antibiofilm activity against Streptococcus mutans ATCC 27351 assessed as bacterial viability at 0.9 uM by SYTO/PI staining based inverted microscopy relative to control. In kind it is functional.
Series [14] has as its system HepG2. The series can be described thus: Cytotoxicity against human HepG2 cells assessed as cell growth inhibition incubated for 72 hrs by Cell Titer Glo assay. The series is classed as functional, cell-based. The following applies: HepG2, 72 h.
Series [15] deals with Mycobacterium tuberculosis. Description: Antibacterial activity against Mycobacterium tuberculosis H37Rv ATCC 25618 assessed as bacterial growth inhibition incubated for 5 days by fluorescence based assay. The series is classed as functional, organism-based. The following applies: H37Rv ATCC 25618, 120 h.
Series [16] relates to Mycobacterium tuberculosis. Description: Antibacterial activity against Mycobacterium tuberculosis H37Rv infected in C57BL/6J mouse model of acute TB infection administered once daily for 8 days and measured after 24 hrs. The series is classed as functional. The following applies: 216 h, time 9 day.
Series [17] can be described thus: Dose normalized AUC (0 to infinity) in C57BL/6 mouse at 5.5 mg/kg, iv qd measured for 0.083 to 24 hrs post dose by LC-MS/MS analysis. The series is classed as ADME, organism-based. The following applies: in vivo, time 0.083-24 hrs.
Series [18] is described as follows: Half life in C57BL/6 mouse at 30 mg/kg, po qd via gavage measured for 0.25 to 24 hrs post dose by LC-MS/MS analysis. In kind it is ADME, organism-based. The following applies: in vivo, time 0.25-24 hrs.
Series [19] in a line: AUC (0 to 24 hrs) in C57BL/6 mouse at 30 mg/kg, po qd via gavage measured for 0.25 to 24 hrs post dose by LC-MS/MS analysis. The following applies: in vivo. The series is classed as ADME, organism-based. The arrangement: dose 30 mg/kg, time 0.25-24 hrs, route po.
Series [20] is described as follows: Dose normalized AUC (0 to 24 hrs) in C57BL/6 mouse at 30 mg/kg, po qd via gavage measured for 0.25 to 24 hrs post dose by LC-MS/MS analysis. The series is classed as ADME, organism-based. The following applies: in vivo, time 0.25-24 hrs.
Series [21] concerns Proteus mirabilis. The series can be described thus: Antibacterial activity against Proteus mirabilis Delta-89 assessed as bacterial growth inhibition incubated for 16 hrs by broth dilution method. The series is classed as functional.
The subject of series [22] is Aspergillus niger. Description: Antifungal activity against Aspergillus niger ATCC 20408 assessed as fungal growth inhibition by plate colony counting method. The series is classed as functional.
In series [23] the test system is Pseudomonas aeruginosa. The series can be described thus: Antibacterial activity against Pseudomonas aeruginosa assessed as bacterial growth inhibition by broth microdilution method. In kind it is functional.
Series [24] deals with A549. The series can be described thus: Cytotoxicity against human A549 cells assessed as cell growth inhibition. In kind it is functional.
In series [25] the test system is MDA-MB-231. Description: Anticancer activity against human MDA-MB-231 cells assessed as cell growth inhibition incubated for 72 hrs by MTT assay. The following applies: MDA-MB-231, 72 h. In kind it is functional, cell-based.
Series [26] deals with MIA PaCa-2. The series can be described thus: Anticancer activity against human MIA PaCa-2 cells assessed as cell growth inhibition incubated for 72 hrs by MTT assay. The series is classed as functional, cell-based. The following applies: MIA PaCa-2, 72 h.
For series [27], the system named is Candida albicans. Description: Antifungal activity against Candida albicans ATCC 14053 assessed as fungal growth inhibition by broth microdilution method. In kind it is functional.
In series [28] the test system is Vanrija humicola. The series can be described thus: Antifungal activity against Cryptococcus humicola ATCC 9949 assessed as fungal growth inhibition by broth microdilution method. In kind it is functional.
Series [29] concerns Aspergillus niger. Description: Antifungal activity against Aspergillus niger ATCC 16404 assessed as fungal growth inhibition by broth microdilution method. The series is classed as functional.
Series [30] relates to Fusarium oxysporum. The series can be described thus: Antifungal activity against Fusarium oxysporum VKM F-140 assessed as fungal growth inhibition by broth microdilution method. The series is classed as functional.
For series [31], the system named is Streptococcus mutans. The series can be described thus: Antibacterial activity against Streptococcus mutans assessed as bacterial growth inhibition. In kind it is functional.

Values after ≈ are worked out from the molar mass of the structure shown. Where only a bound is given, the exact number is not on record here.

In the case of `CC(C)C1=[N+](Cc2cccc(C(F)(F)F)c2)[B-](c2ccccc2)(c2ccccc2)OC1=O`, the 50% inhibitory concentration (IC50) stood at 76 µM in series [1] and 268 µM in [2]. As to `Cc1ccc2c(c1-c1ccccc1C(N)=O)B(O)OC2`, the concentration for an effect of 90% (IC90) in series [3] came out at 1.8 µM. In the case of `O=[N+]([O-])c1ccc([N+]2=C(c3ccccc3)C=C(C(Cl)(Cl)Cl)O[B-]2(F)F)cc1`, the MIC in series [4] stood at 0.3 µg/mL (≈ 0.692 µM). For the compound `O=C1C[NH2+][B-](c2ccccc2)(c2ccccc2)O1`, in [5], the IC50 came out at 22.5 µM. In the case of `CCCS(=O)(=O)N1N=Cc2sc(C)cc2B1O`, the minimum inhibitory concentration (MIC) in [6] amounted to 0.19 µg/mL (≈ 0.698 µM); in series [7], 0.31 µg/mL (≈ 1.14 µM). For `OB1OCc2cc(F)ccc21` [TAVABOROLE], the MIC in series [8] turned out to be 2 µg/mL (≈ 13.2 µM). Take `O=C(c1ccncc1)N1N=Cc2ccccc2B1OB1c2ccccc2C=NN1C(=O)c1ccncc1`: the values for the minimum inhibitory concentration (MIC) in [9] and in series [10] were 4 µg/mL (≈ 8.26 µM) and 32 µg/mL, respectively.

Turning to `COc1ccc2c(c1)C=NN(C(N)=S)B2O`, the figures for the zone of inhibition at 50 µg/disc in series [11] and in [12] were 2.3 mm and 6.4 mm, respectively. Consider `CC1(C)COB(c2ccccc2)N1`, for which the Activity in series [13] is 60%. `CS(=O)(=O)N1N=Cc2ccc(Oc3ccc(C(F)(F)F)cc3/C=N/O)cc2B1O`: the concentration for half-maximal inhibition (IC50) in [14] is greater than 100 µM; in [15], 0.11 µM. On to `NC[C@H]1OB(O)c2c(OCCO)ccc(Cl)c21` [GANFEBOROLE], for which, in [16], the ED99 worked out at 0.4 mg/kg. Also, the AUC/dose in series [17] was 2.03 µg·h/mL; in series [20] it was 2.94 µg·h/mL. The compound further showed a half-life in series [18] of 3.6 h. Also, the exposure (AUC) in series [19] was determined as 88200 ng·h/mL. Regarding `COc1ccc([N+]2=C(c3ccccc3)C=C(C(Cl)(Cl)Cl)O[B-]2(F)F)cc1`, the MIC in series [4] amounted to 0.3 µg/mL (≈ 0.717 µM). As to `Cc1ccc2c(c1)C=NN(S(=O)(=O)c1ccc(N)cc1Cl)B2O`, the MIC in series [7] was found to be 0.39 µg/mL (≈ 1.12 µM); in series [21] it was 0.78 µg/mL (≈ 2.23 µM). As for `Clc1cccc(B2NC(c3ccccc3)=NO2)c1`, in series [22], the MIC was determined as 0.09 µM (≈ 0.0231 µg/mL). Turning to `Clc1ccc(-c2noc3c2COB(c2ccc(Br)cc2)OC3)cc1`, the MIC in series [23] was determined as 25 µg/mL (≈ 61.8 µM).

On to `O=C(NCCNC(=O)c1ccc2c(c1)B(O)OC2)c1ccc2c(c1)B(O)OC2`, for which, in series [10], the minimal inhibitory concentration (MIC) is 0.78 µM. The MIC99 in [24] is greater than 5 µM. As to `CC1=NN2B(OB3c4ccccc4C(C)=NN3C2=O)c2ccccc21`, the minimum inhibitory concentration (MIC) in series [9] stood at 32 µg/mL (≈ 97.6 µM). `COc1ccc(CN(C(=O)Nc2ccccc2)c2ccc3c(c2)B(O)OC3)cc1`: the figures for the IC50 in series [25] and in [26] were 11.5 µM and 8.3 µM, respectively. In the case of `O=C(NCCCOCCOCCOCCCNC(=O)c1ccc2c(c1)B(O)OC2)c1ccc2c(c1)COB2O`, in series [10], the minimal inhibitory concentration (MIC) stood at 1.56 µM. Besides, the MIC99 in series [24] is greater than 5 µM. As to `C[C@@H]1[C@H](O)[C@@H](C)/C=C/C=C/C=C/C=C/C=C/C=C/C=C/[C@H](O[C@@H]2O[C@H](C)[C@@H](O)[C@H](NC(=O)CCc3ccc4c(c3)OB(O)C4)[C@@H]2O)C[C@@H]2O[C@](O)(C[C@@H](O)C[C@@H](O)[C@H](O)CC[C@@H](O)C[C@@H](O)CC(=O)O[C@H]1C)C[C@H](O)[C@H]2C(=O)O`, the minimum inhibitory concentration (MIC) in series [27], in series [28], in series [29] and in series [30] was 0.5 µg/mL (≈ 0.45 µM) each time. On to `CCCCB1OC(c2ccccc2)C(C)N1C` (stereo not drawn), for which the MIC in [31] was 500 µM (≈ 116 µg/mL).

On to `Cc1ccc(S(=O)(=O)N2N=Cc3cc(C)oc3B2O)cc1`, for which the values for the MIC in series [6] and in [7] were 3.12 µg/mL (≈ 10.3 µM) and 1.56 µg/mL (≈ 5.13 µM), respectively. Turning to `C[C@@H]1[C@H](O)[C@@H](C)/C=C/C=C/C=C/C=C/C=C/C=C/C=C/[C@H](O[C@@H]2O[C@H](C)[C@@H](O)[C@H](NS(=O)(=O)c3ccc4c(c3)OB(O)C4)[C@@H]2O)C[C@@H]2O[C@](O)(C[C@@H](O)C[C@@H](O)[C@H](O)CC[C@@H](O)C[C@@H](O)CC(=O)O[C@H]1C)C[C@H](O)[C@H]2C(=O)O`, the minimum inhibitory concentration (MIC) in series [27], in series [28], in series [29] and in series [30] was 0.25 µg/mL (≈ 0.223 µM) each time.

The values are drawn from ChEMBL document CHEMBL5104111, “Boron-Containing heterocycles as promising pharmacological agents” (Bioorg Med Chem, 2022).
